Laboratory results from US10265330B2, “Pharmaceutical compositions and treatment of mastitis” (BAYER ANIMAL HEALTH GMBH, priority 2012, dated 2019).

Tests used:
S. aureus = format: cell-based, Staphylococcus aureus; settings: single compound
Source text: (§1) The mutant prevention concentration (MPC) is the drug concentration that blocks the growth of the least susceptible, single-step mutant. Above this concentration, cell growth requires the presence of two or more resistance mutations. Since two concurrent mutations are expected to arise rarely, resistance is expected to develop rarely when drug concentrations are kept above the MPC. For further information regarding the MPC, it is by way of example referred to Drlica, K. (2003). The mutant selection window and antimicrobial resistance. Journal of Antimicrobial Chemotherapy, 52(1), 11-17; and to Blondeau, J. M. (2009). New concepts in antimicrobial susceptibility testing: the mutant prevention concentration and mutant selection window approach. Veterinary dermatology, 20(5-6), 383-396.

[1] = test system: Staphylococcus aureus Newbould 305 (ATCC 29740); test: S. aureus mouse mastitis model (MMM), intramammary treatment; format: in vivo, lactating CD-1 mice; settings: for Median CFU log10: glands harvested 18 h after inoculation
Protocol: The mice were treated intramammarily (IMAM) with enrofloxacin, fosfomycin and a combination of enrofloxacin and fosfomycin as detailed in Table 1 four hours after inoculation. Each treatment group contained at least 3 mice (6 glands). Fourteen hours later (18 hours after inoculation) mice were sacrificed, mammary glands were harvested and the CFU content evaluated by plating 10-fold serial dilutions of mammary gland homogenates. The CFU content was expressed as log10 count. The detection limit was 200 CFU/g of gland. Glands with less than 200 CFU/g were regarded as cleared of S. aureus (see Table 1).
For each treatment group median log10 reductions of CFU were determined by subtracting the median log10 CFU value of the respective group from the median log10 CFU value of the untreated control group.

Staphylococcus aureus = test: Field trial, dairy cattle with subclinical mastitis; format: in vivo; settings: 400 mg cefazolin and/or 1000 mg fosfomycin per quarter, six times at 12 h interval; for Cure rate of S. aureus infection / Cure rate of S. aureus infection (cured quarters/treated quarters): paraffin based ointment, milk samples 3 and 4 weeks after treatment
Protocol: In another field trial, dairy cattle with subclinical mastitis, i.e. persistent, chronic udder infections caused by Staphylococcus aureus, were treated with either cefazolin, fosfomycin or a combination of both compounds. […] The affected quarters were treated with this ointment six consecutive times with an interval of 12 hours between each application. […] Following treatment, the level of udder inflammation, as measured by the Somatic Cell Count in the milk samples post treatment, was lower in the udders treated with the cefazolin-fosfomycin combination (46% of milk samples with a SCC lower than 300,000 cells/mL) than in udders treated with cefazolin alone (30% of milk samples with a SCC lower than 300,000 cells/mL) or with fosfomycin alone (24% of milk samples with a SCC lower than 300,000 cells/mL).

[2] = test system: Streptococus uberis, Staphylococus aureus, Escherichia coli, other streptococci and mixed infections; test: Field study, dairy cattle with clinical mastitis; format: in vivo; settings: 400 mg cefazolin and/or 1000 mg fosfomycin per quarter, paraffin based ointment, three times at 24 h interval; milk samples 1-3 weeks after treatment
Protocol: In a first field-study, dairy cattle with clinical mastitis were treated under field conditions with either cefazolin, fosfomycin or a combination of both compounds. […] The diseased quarters were treated with this ointment three consecutive times with an interval of 24 hours between each application. When a milk sample was taken from the diseased udder quarters before the treatment for the diagnosis of mastitis infection, pathogenic bacteria typical of clinical mastitis were isolated, i.e. Streptococus uberis, Staphylococus aureus, Escherichia coli, other streptococci and mixed infections of the aforementioned species. […] Diseased udder quarters were considered cured when the clinical symptoms of mastitis had disappeared within one week without requiring a new antibiotic treatment and when the causative pathogenic bacterium, found in the diagnostic milk sample shortly before treatment, could not be isolated from any of the milk samples taken from one to three weeks following treatment. The cure rate of mastitis infection was higher in the udder quarters treated with the combination ointment (cefazolin together with fosfomycin), i.e. 17/38 (45%), than in the quarters treated with the ointment containing cefazolin alone ( 11/35, 31%) or fosfomycin alone ( 13/37, 35%).

E. coli = format: cell-based, Escherichia coli; settings: single compound
Source text: as §1

[3] = dose 100 μg IMAM, listed as enrofloxacin

Compound: CCN1CCN(c2cc3c(cc2F)c(=O)c(C(=O)O)cn3C2CC2)CC1 [Enrofloxacin, enrofloxacin]
- MPC against S. aureus (S. aureus): 3 µg/mL
- Cleared glands % (less than 200 CFU/g) ([1]; dose 100 μg IMAM): 0%
- log10 CFU reduction (median, vs untreated control) ([1]; dose 100 μg IMAM): 1.41 log10
- Median CFU log10 ([1]; dose 100 μg IMAM 4 h after inoculation): 6.8 CFU log10
- Cleared glands % (less than 200 CFU/g) [1, 3]: does not eliminate the infection
- log10 CFU reduction (median, vs untreated control) [1, 3]: 1.4 log10

Compound: C[C@@H]1O[C@@H]1P(=O)(O)O [Fosfomycin, [(2R,3S)-3-methyloxiran-2-yl]phosphonic acid]
- Cure rate of S. aureus infection (Staphylococcus aureus): 57%
- Cure rate of S. aureus infection (cured quarters/treated quarters) (Staphylococcus aureus): 27/47
- Cured quarters with SCC returned to normal (lower than 300,000 cells per mL) (Staphylococcus aureus): 19%
- Cured quarters with SCC returned to normal (lower than 300,000 cells per mL), quarters/treated quarters (Staphylococcus aureus): 9/47
- Milk samples post treatment with a SCC lower than 300,000 cells/mL (Staphylococcus aureus): 24%
- MPC against S. aureus (S. aureus): 1500 µg/mL
- Cleared glands % (less than 200 CFU/g) ([1]; dose 100 μg IMAM): does not eliminate the infection
- log10 CFU reduction (median, vs untreated control) ([1]; dose 100 μg IMAM): 2.0 log10
- Cleared glands % (less than 200 CFU/g) ([1]; dose 500 μg IMAM): 0%
- log10 CFU reduction (median, vs untreated control) ([1]; dose 500 μg IMAM): 3.3 log10
- Median CFU log10 ([1]; dose 500 μg IMAM 4 h after inoculation): 5.0 CFU log10
- Cleared glands % (less than 200 CFU/g) ([1]; dose 500 μg IMAM, listed as fosfomycin): does not eliminate the infection
- Cleared glands % (less than 200 CFU/g) ([1]; dose 1000 μg IMAM): 0%
- log10 CFU reduction (median, vs untreated control) ([1]; dose 1000 μg IMAM): 5.1 log10
- Median CFU log10 ([1]; dose 1000 μg IMAM 4 h after inoculation): 3.2 CFU log10
- Cleared glands % (less than 200 CFU/g) ([1]; dose 1000 μg IMAM, listed as fosfomycin): does not eliminate the infection
- Cure rate of mastitis infection [2]: 35%
- Cure rate of mastitis infection (cured quarters/treated quarters) [2]: 13/37
- MPC against E. coli (E. coli): 200 µg/mL

Compound: CC1(C)S[C@@H]2[C@H](NC(=O)[C@H](N)c3ccc(O)cc3)C(=O)N2[C@H]1C(=O)O [amoxicillin]
- Cleared glands % (less than 200 CFU/g) ([1]; dose 100 μg IMAM): does not eliminate the infection
- log10 CFU reduction (median, vs untreated control) ([1]; dose 100 μg IMAM): 1.6 log10

Compound: Cc1nnc(SCC2=C(C(=O)O)N3C(=O)[C@@H](NC(=O)Cn4cnnn4)[C@H]3SC2)s1 [cefazolin]
- Cure rate of S. aureus infection (Staphylococcus aureus): 46%
- Cure rate of S. aureus infection (cured quarters/treated quarters) (Staphylococcus aureus): 20/43
- Cured quarters with SCC returned to normal (lower than 300,000 cells per mL) (Staphylococcus aureus): 23%
- Cured quarters with SCC returned to normal (lower than 300,000 cells per mL), quarters/treated quarters (Staphylococcus aureus): 10/43
- Milk samples post treatment with a SCC lower than 300,000 cells/mL (Staphylococcus aureus): 30%
- MPC against S. aureus (S. aureus): 1.25 µg/mL
- Cleared glands % (less than 200 CFU/g) ([1]; dose 100 μg IMAM): does not eliminate the infection
- log10 CFU reduction (median, vs untreated control) ([1]; dose 100 μg IMAM): 5.1 log10
- Cleared glands % (less than 200 CFU/g) ([1]; dose 50 microgram IMAM): does not eliminate the infection
- log10 CFU reduction (median, vs untreated control) ([1]; dose 50 microgram IMAM): 4.5 log10
- Cure rate of mastitis infection [2]: 31%
- Cure rate of mastitis infection (cured quarters/treated quarters) [2]: 11/35
- MPC against E. coli (E. coli): 64 µg/mL

Compound: CC[C@@H]1CCN[C@H](C(=O)N[C@@H]([C@H]2O[C@H](SC)[C@H](O)[C@@H](O)[C@H]2O)[C@H](C)Cl)C1 [pirlimycin]
- MPC against S. aureus (S. aureus): 2 µg/mL
- Cleared glands % (less than 200 CFU/g) ([1]; dose 10 microgram IMAM): does not eliminate the infection
- log10 CFU reduction (median, vs untreated control) ([1]; dose 10 microgram IMAM): 3.3 log10
